From PubChem BioAssay (NCI) come the findings set out here.

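Tested at 5 concentrations; 48 h exposure; 96-well plates; endpoints linearly interpolated, else capped at highest concentration. Abbreviation: GI50, concentration required for 50% inhibition of growth. Definition used: TGI = concentration required for complete inhibition of growth.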

Common to all, as to assay: DTP human tumour cell line panel, 48 h
Test [1] deals with BT-549 breast.
In test [2] the test system is DU-145 prostate.
For test [3], the system named is HS 578T breast.
Test [4] has as its system MDA-MB-435.
Test [5] concerns NCI/ADR-RES ovarian.
Test [6] concerns PC-3 prostate.
In test [7] the test system is DMS 114 small cell lung.
In test [8] the test system is HOP-18 NSCLC.
In test [9] the test system is M19-MEL melanoma.
Test [10] relates to SNB-78 CNS.
In test [11] the test system is XF 498 CNS.
Test [12] deals with DMS 273 small cell lung.
Test [13] relates to LXFL 529 NSCLC.

For `C=C1C(=O)O[C@H]2[C@H]1CC/C(CNC(=O)/C=C/c1ccc(Cl)cc1Cl)=C\CC[C@@]1(C)O[C@@H]21`, the GI50 (commonly the concentration that inhibits growth by half) is 0.975 µM in test [1]; 0.594 µM in test [2]; 2.09 µM in test [3]; 0.444 µM in [4]; 2.57 µM in test [5]; 1.42 µM in test [6]. The TGI (in general, the concentration at which net growth stops) in test [1] amounted to 2.59 µM; in [2] it was 1.89 µM; in test [3], 8.23 µM; in test [4], 1.74 µM; in [5], 12.8 µM; in test [6] it was 4.4 µM.

Regarding `O=C1COCCN1c1ccc(NCc2cn(C(=O)c3ccc(Cl)cc3)c3ccccc23)cc1`, the GI50 in [1] is 4.37 µM; in [2] it was 8.76 µM; in [3] it was 3.86 µM; in [4], 16.4 µM; in [5], 5.77 µM; in test [6] it was 4.78 µM. In addition, the TGI is 53.7 µM in test [1]; more than 100 µM in test [2]; 39.1 µM in [3]; 50.1 µM in test [4]; 55.8 µM in [5]; 49.5 µM in [6].

As to `NNC(=S)N/N=C(/C(=O)Nc1ccc([N+](=O)[O-])cc1)c1nc2ccc([N+](=O)[O-])cc2[nH]c1=O`, the TGI in test [7], in [8], in test [9], in test [10] and in test [11] was more than 100 µM throughout.

`C=C(C)C(=O)O[C@H]1CC2=CC(CC(C)=C[C@H]3OC(=O)C(=C)C13)OC2=O` (some centres undefined): the TGI in [1] was 38.9 µM; in test [2], 30.8 µM; in test [3], more than 100 µM; in test [4], more than 100 µM; in test [5], more than 100 µM; in test [6], 53.5 µM.

Take `O=C1c2ccn(CCCCN(CCO)CCO)c2C(=O)c2c1c(O)c1ccccc1c2O`: the GI50 was 20.7 µM in [1]; 15.2 µM in [2]; 17.4 µM in test [3]; 3.04 µM in test [4]; 3.31 µM in test [5]; 3.05 µM in [6]. Also, the TGI in [1] was 60.9 µM; in test [2] it was 34.8 µM; in test [3], 59.3 µM; in test [5], 12.7 µM; in test [6], more than 20.7 µM.

`CN(CCCN(C)CCC1CCCCC1)CCC1CCCCC1`: the GI50 is 2.64 µM in test [1]; 8.51 µM in test [2]; 2.26 µM in test [3]; 0.755 µM in test [4]; 6.6 µM in [5]; 2.62 µM in test [6]. The TGI came to 11.1 µM in [1]; 20.8 µM in test [2]; 6.68 µM in test [3]; 2.27 µM in test [4]; 20.1 µM in [5]; 15.4 µM in test [6].

On to `Clc1ccc(/C=C/c2nc(Cl)c(-c3ccc(Cl)cc3)c(Cl)n2)cc1`, for which the TGI in test [1], in test [2], in test [3], in [4], in [5] and in [6] was more than 100 µM in each case.

Regarding `Cc1cc(C)nc(NS(=O)(=O)c2ccc(NC(=O)c3cccc4c(N)c5ccccc5nc34)cc2)n1`, the TGI in [7], in test [12], in test [13], in test [9], in test [10] and in test [11] was more than 100 µM each time.

For `O=c1cc(-c2ccc(O)cc2)oc2cc(O)cc(O)c12`, the TGI is more than 100 µM in test [7]; 40.2 µM in test [12]; 37.3 µM in test [13]; more than 100 µM in test [9]; 39.5 µM in test [10]; 61.6 µM in [11].

Regarding `Cc1c(C(N)=O)sc2c1c(=O)n(Cc1ccccc1)c1nnc(S(=O)(=O)CC(=O)Nc3ccc(Cl)cc3)n21`, the GI50 was 2.92 µM in [1]; 7.29 µM in test [2]; 2.67 µM in test [3]; 3.61 µM in test [4]; 20.2 µM in test [5]; 2.58 µM in test [6]. The TGI in [1] was 14.9 µM; in test [2], 36.7 µM; in [3] it was more than 100 µM; in test [4], 17 µM; in test [5], 63.4 µM; in test [6], 9.3 µM.

As to `CN(C)c1ncnc2c1ccn2C1OC(CO)C(O)C1O` (centres undefined), the GI50 in test [1] is 3.98 µM; in [2], 0.386 µM; in test [3], 2.71 µM; in test [4], 2.55 µM; in test [5], 1.3 µM; in test [6], 0.477 µM. Besides, the TGI in test [1] is more than 100 µM; in test [2] it was 2.94 µM; in test [3], 40.2 µM; in [4], more than 29.1 µM; in [5] it was more than 30.1 µM; in test [6], 11.5 µM.

Turning to `COC(=O)Nc1nc2ccc(S(=O)(=O)c3ccc(NC(=O)Nc4cc(C(F)(F)F)ccc4F)cc3)cc2[nH]1`, the GI50 in [1], in [2], in test [3], in test [4], in test [5] and in test [6] was more than 25 µM each time. Also, the TGI in [1], in test [2], in [3], in test [4], in test [5] and in test [6] was more than 25 µM throughout.

With `CN(C)CC1=Nc2cccc3cccc(c23)N1`, the TGI in test [1] was 31.5 µM; in test [2], 30.9 µM; in test [3], more than 100 µM; in [4], 38.1 µM; in test [5] it was more than 100 µM; in test [6], 32.3 µM.

Turning to `CC(C)=CCc1cc(C2COc3cc4c(c(O)c3C2=O)C=CC(C)(C)O4)c(O)cc1O` (centres undefined), the TGI in test [1] was determined as 33.3 µM; in test [2], 27.9 µM; in test [3], 39.9 µM; in [4], 33.4 µM; in test [5], 79.4 µM; in test [6], 24.9 µM.
